In paper PMC9090415, “Discovery of small molecule inhibitors of Plasmodium falciparum apicoplast DNA polymerase” (Journal of Enzyme Inhibition and Medicinal Chemistry, 2022):

Target: P. falciparum apicoplast DNA polymerase (Pf-apPOL) (Plasmodium falciparum, UniProt Q8ILY1)
Assay: Fluorescence-based high-throughput DNA polymerase assay (molecular beacon), primary screen and dose-response
Assay type: biochemical
Settings: for DNA Pol: 90 min, 10 µM; for % inhibition apPOL 180' 2.5 / % inhibition apPOL 180' 5 / % inhibition apPOL 180' 10 / % inhibition apPOL 180' 20 / % inhibition apPOL 180' 40 / % inhibition apPOL 180' 80: read at 180'
Procedure, shortened: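 Single-point screening used 10 µM compound with 20 nM polymerase, 20 nM hairpin substrate and 6 µM dNTPs for 90 min at 25 °C. Confirmatory titrations (2.5–80 µM) followed fluorescence at three times, and IC50 was derived from a fit including a cooperativity term n.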

Sequence of P. falciparum apicoplast DNA polymerase (Pf-apPOL) (Q8ILY1 entry or part of it): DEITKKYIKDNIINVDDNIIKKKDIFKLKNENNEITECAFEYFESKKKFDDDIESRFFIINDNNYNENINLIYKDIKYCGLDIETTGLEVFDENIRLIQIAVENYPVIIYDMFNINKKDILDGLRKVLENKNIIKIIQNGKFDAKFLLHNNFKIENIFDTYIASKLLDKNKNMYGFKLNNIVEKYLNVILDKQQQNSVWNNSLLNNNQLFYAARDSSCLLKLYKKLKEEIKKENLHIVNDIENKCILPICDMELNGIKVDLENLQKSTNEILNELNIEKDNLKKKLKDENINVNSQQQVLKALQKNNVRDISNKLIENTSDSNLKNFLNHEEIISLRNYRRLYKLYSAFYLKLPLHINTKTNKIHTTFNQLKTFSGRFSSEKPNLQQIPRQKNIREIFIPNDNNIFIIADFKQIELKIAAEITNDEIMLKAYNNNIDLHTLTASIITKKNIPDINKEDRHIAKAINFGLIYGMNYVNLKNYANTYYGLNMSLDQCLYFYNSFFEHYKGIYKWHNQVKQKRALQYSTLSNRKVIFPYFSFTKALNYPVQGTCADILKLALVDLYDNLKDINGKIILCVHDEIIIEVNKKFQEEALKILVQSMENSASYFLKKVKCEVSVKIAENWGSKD

N#CC(=NNc1cc(C(F)(F)F)cc(C(F)(F)F)c1)C(=O)c1ccco1 [KU0264276]
DNA Pol ("DNA Pol" of the 186 hits list (screen value)): 81 | % inhibition Apo pol 10' (DRC-1, concentration 2.5): 7.413% | % inhibition Apo pol 10' (DRC-1, concentration 5): 17.153% | % inhibition Apo pol 10' (DRC-1, concentration 10): 33.1185% | % inhibition Apo pol 10' (DRC-1, concentration 20): 55.9301% | % inhibition Apo pol 10' (DRC-1, concentration 40): 90.9847% | % inhibition Apo pol 10' (DRC-1, concentration 80): 81.2188% | % inhibition Apol 90' (DRC-1, concentration 2.5): 13.8039% | % inhibition Apol 90' (DRC-1, concentration 5): 15.4083% | % inhibition Apol 90' (DRC-1, concentration 10): 41.225% | % inhibition Apol 90' (DRC-1, concentration 20): 52.5694% | % inhibition Apol 90' (DRC-1, concentration 40): 86.2656% | % inhibition Apol 90' (DRC-1, concentration 80): 77.3906% | % inhibition apPOL 180' (DRC-1, concentration 2.5): 13.2581% | % inhibition apPOL 180' (DRC-1, concentration 5): 8.8259% | % inhibition apPOL 180' (DRC-1, concentration 10): 37.6364% | % inhibition apPOL 180' (DRC-1, concentration 20): 41.4937% | % inhibition apPOL 180' (DRC-1, concentration 40): 81.9249% | % inhibition apPOL 180' (DRC-1, concentration 80): 71.4519% | % inhibition Apo pol 5' (DRC-2, concentration 2.5): 6% | % inhibition Apo pol 5' (DRC-2, concentration 5): 12% | % inhibition Apo pol 5' (DRC-2, concentration 10): 27% | % inhibition Apo pol 5' (DRC-2, concentration 20): 47% | % inhibition Apo pol 5' (DRC-2, concentration 40): 57% | % inhibition Apo pol 5' (DRC-2, concentration 80): 58% | % inhibition Apol 40' (DRC-2, concentration 2.5): 8% | % inhibition Apol 40' (DRC-2, concentration 5): 15% | % inhibition Apol 40' (DRC-2, concentration 10): 34% | % inhibition Apol 40' (DRC-2, concentration 20): 59% | % inhibition Apol 40' (DRC-2, concentration 40): 69% | % inhibition Apol 40' (DRC-2, concentration 80): 72% | % inhibition ApPOL 90' (DRC-2, concentration 2.5): 4.34% | % inhibition ApPOL 90' (DRC-2, concentration 5): 14% | % inhibition ApPOL 90' (DRC-2, concentration 10): 32% | % inhibition ApPOL 90' (DRC-2, concentration 20): 59% | % inhibition ApPOL 90' (DRC-2, concentration 40): 71% | % inhibition ApPOL 90' (DRC-2, concentration 80): 74% | % inhibition apPOL 180' (DRC-2, concentration 2.5): -0.774% | % inhibition apPOL 180' (DRC-2, concentration 5): 4.73% | % inhibition apPOL 180' (DRC-2, concentration 10): 22% | % inhibition apPOL 180' (DRC-2, concentration 20): 52% | % inhibition apPOL 180' (DRC-2, concentration 40): 67% | % inhibition apPOL 180' (DRC-2, concentration 80): 74% | DNA Pol (primary screen value, DNA Pol): 81

C#CC(C=CC)OC(=O)c1ccccc1C(=O)O (stereo not drawn) [Molecule 61, CC=CC(OC(=O)c1ccccc1C(=O)O)C#C]
DNA Pol (186 hits, DNA Pol (screen value), unit not given): 84 | DNA Pol ('DNA Pol' (screen value), unit not given): 84 | % inhibition Apo pol 10' 2.5 (DRC-1, read at 10', concentration 2.5): 8.856% | % inhibition Apo pol 10' 5 (DRC-1, read at 10', concentration 5): 15.4135% | % inhibition Apo pol 10' 10 (DRC-1, read at 10', concentration 10): 32.6686% | % inhibition Apo pol 10' 20 (DRC-1, read at 10', concentration 20): 51.5021% | % inhibition Apo pol 10' 40 (DRC-1, read at 10', concentration 40): 73.1045% | % inhibition Apo pol 10' 80 (DRC-1, read at 10', concentration 80): 83.6168% | % inhibition Apol 90' 2.5 (DRC-1, read at 90', concentration 2.5): 1.5571% | % inhibition Apol 90' 5 (DRC-1, read at 90', concentration 5): 4.145% | % inhibition Apol 90' 10 (DRC-1, read at 90', concentration 10): 16.9852% | % inhibition Apol 90' 20 (DRC-1, read at 90', concentration 20): 30.9577% | % inhibition Apol 90' 40 (DRC-1, read at 90', concentration 40): 54.6934% | % inhibition Apol 90' 80 (DRC-1, read at 90', concentration 80): 70.5531% | % inhibition apPOL 180' 2.5 (DRC-1, concentration 2.5): -3.738% | % inhibition apPOL 180' 5 (DRC-1, concentration 5): -3.151% | % inhibition apPOL 180' 10 (DRC-1, concentration 10): 5.1086% | % inhibition apPOL 180' 20 (DRC-1, concentration 20): 14.9685% | % inhibition apPOL 180' 40 (DRC-1, concentration 40): 36.8949% | % inhibition apPOL 180' 80 (DRC-1, concentration 80): 55.2706% | % inhibition Apo pol 5' (DRC-2, concentration 80): 57% | % inhibition Apol 40' (DRC-2, concentration 80): 69% | % inhibition ApPOL 90' (DRC-2, concentration 20): 48% | % inhibition ApPOL 90' (DRC-2, concentration 40): 57% | % inhibition apPOL 180' (DRC-2, concentration 2.5): -4% | % inhibition apPOL 180' (DRC-2, concentration 5): -4% | % inhibition apPOL 180' (DRC-2, concentration 40): 48% | % inhibition apPOL 180' (DRC-2, concentration 80): 69% | % inhibition Apo pol 5' 2.5 (DRC-2, read at 5', concentration 2.5): 3.3% | % inhibition Apo pol 5' 5 (DRC-2, read at 5', concentration 5): 15% | % inhibition Apo pol 5' 10 (DRC-2, read at 5', concentration 10): 33% | % inhibition Apo pol 5' 20 (DRC-2, read at 5', concentration 20): 50% | % inhibition Apo pol 5' 40 (DRC-2, read at 5', concentration 40): 54% | % inhibition Apo pol 5' 80 (DRC-2, read at 5', concentration 80): 57% | % inhibition Apol 40' 2.5 (DRC-2, read at 40', concentration 2.5): 3% | % inhibition Apol 40' 5 (DRC-2, read at 40', concentration 5): 11% | % inhibition Apol 40' 10 (DRC-2, read at 40', concentration 10): 31% | % inhibition Apol 40' 20 (DRC-2, read at 40', concentration 20): 52% | % inhibition Apol 40' 40 (DRC-2, read at 40', concentration 40): 59% | % inhibition Apol 40' 80 (DRC-2, read at 40', concentration 80): 69% | % inhibition ApPOL 90' 2.5 (DRC-2, read at 90', concentration 2.5): 0.76% | % inhibition ApPOL 90' 5 (DRC-2, read at 90', concentration 5): 5.31% | % inhibition ApPOL 90' 10 (DRC-2, read at 90', concentration 10): 26% | % inhibition ApPOL 90' 20 (DRC-2, read at 90', concentration 20): 48% | % inhibition ApPOL 90' 40 (DRC-2, read at 90', concentration 40): 57% | % inhibition ApPOL 90' 80 (DRC-2, read at 90', concentration 80): 71% | % inhibition apPOL 180' 2.5 (DRC-2, concentration 2.5): -4% | % inhibition apPOL 180' 5 (DRC-2, concentration 5): -4% | % inhibition apPOL 180' 10 (DRC-2, concentration 10): 13% | % inhibition apPOL 180' 20 (DRC-2, concentration 20): 35% | % inhibition apPOL 180' 40 (DRC-2, concentration 40): 48% | % inhibition apPOL 180' 80 (DRC-2, concentration 80): 69%
